Experimental data taken from ChEMBL document CHEMBL5442219.

Legend:
Conditions in all cases: Compound concentration 10 µM
[1] = biological target: T1, Alpha-2A adrenergic receptor (Homo sapiens) (UniProt P08913)
T1 sequence (whole entry): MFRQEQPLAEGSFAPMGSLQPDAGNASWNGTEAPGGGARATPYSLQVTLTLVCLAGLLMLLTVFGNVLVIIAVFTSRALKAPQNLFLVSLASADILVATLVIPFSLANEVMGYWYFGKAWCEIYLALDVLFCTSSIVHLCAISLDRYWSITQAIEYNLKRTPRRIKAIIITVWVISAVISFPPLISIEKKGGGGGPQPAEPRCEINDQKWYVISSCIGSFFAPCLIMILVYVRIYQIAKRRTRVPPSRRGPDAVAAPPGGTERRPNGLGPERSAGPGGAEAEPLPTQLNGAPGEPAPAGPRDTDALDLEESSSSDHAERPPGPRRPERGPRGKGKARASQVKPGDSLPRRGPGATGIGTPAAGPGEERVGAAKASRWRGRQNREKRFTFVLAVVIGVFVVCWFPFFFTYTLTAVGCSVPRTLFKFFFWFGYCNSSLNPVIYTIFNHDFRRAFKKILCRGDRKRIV

[2] = biological target: T2, Alpha-2C adrenergic receptor (Homo sapiens) (UniProt P18825)
T2 sequence (whole entry): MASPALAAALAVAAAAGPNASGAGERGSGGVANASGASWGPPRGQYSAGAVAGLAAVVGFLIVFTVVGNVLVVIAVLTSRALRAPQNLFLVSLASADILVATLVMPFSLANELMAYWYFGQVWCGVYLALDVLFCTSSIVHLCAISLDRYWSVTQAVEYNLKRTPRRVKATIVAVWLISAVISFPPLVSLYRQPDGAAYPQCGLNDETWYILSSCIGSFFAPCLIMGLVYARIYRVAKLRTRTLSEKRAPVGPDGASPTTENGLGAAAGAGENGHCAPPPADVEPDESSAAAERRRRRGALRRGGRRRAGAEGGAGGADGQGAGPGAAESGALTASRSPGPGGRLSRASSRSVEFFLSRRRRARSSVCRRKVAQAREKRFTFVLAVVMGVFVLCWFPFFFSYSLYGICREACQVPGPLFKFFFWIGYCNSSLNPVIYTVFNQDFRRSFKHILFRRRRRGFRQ

[3] = biological target: Beta-1 adrenergic receptor (Homo sapiens) (UniProt P08588)
[4] = biological target: T3, Muscarinic acetylcholine receptor M4 (Homo sapiens) (UniProt P08173)
T3 sequence (whole entry): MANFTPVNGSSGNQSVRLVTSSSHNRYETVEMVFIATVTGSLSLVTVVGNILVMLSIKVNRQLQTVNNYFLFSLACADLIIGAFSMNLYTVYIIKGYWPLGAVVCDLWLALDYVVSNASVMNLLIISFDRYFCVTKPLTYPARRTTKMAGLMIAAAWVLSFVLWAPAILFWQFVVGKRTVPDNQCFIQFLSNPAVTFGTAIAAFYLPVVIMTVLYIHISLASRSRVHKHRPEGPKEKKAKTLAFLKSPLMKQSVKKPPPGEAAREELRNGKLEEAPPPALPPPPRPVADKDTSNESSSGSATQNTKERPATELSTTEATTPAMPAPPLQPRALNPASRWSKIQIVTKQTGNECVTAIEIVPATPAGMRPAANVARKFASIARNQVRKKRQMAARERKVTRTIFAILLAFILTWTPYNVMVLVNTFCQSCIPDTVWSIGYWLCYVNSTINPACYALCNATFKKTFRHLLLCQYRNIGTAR

[5] = biological target: T4, D(4) dopamine receptor (Homo sapiens) (UniProt P21917)
T4 sequence (whole entry): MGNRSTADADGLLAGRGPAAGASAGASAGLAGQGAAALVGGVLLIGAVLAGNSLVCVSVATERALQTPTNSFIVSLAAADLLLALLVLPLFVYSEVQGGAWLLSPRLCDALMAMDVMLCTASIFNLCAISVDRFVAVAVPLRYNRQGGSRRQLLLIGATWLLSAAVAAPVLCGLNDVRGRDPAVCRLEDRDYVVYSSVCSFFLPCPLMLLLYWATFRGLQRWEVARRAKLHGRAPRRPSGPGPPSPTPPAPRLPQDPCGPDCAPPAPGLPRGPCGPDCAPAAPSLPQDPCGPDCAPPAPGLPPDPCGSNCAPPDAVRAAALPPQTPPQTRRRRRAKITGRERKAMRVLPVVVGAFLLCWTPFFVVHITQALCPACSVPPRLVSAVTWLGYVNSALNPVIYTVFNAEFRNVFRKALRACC

[6] = biological target: D(1B) dopamine receptor (Homo sapiens) (UniProt P21918)
[7] = biological target: Histamine H1 receptor (Homo sapiens) (UniProt P35367)
[8] = biological target: Histamine H4 receptor (Homo sapiens) (UniProt Q9H3N8)
[9] = biological target: T5, 5-hydroxytryptamine receptor 1A (Homo sapiens) (UniProt P08908)
T5 sequence (whole entry): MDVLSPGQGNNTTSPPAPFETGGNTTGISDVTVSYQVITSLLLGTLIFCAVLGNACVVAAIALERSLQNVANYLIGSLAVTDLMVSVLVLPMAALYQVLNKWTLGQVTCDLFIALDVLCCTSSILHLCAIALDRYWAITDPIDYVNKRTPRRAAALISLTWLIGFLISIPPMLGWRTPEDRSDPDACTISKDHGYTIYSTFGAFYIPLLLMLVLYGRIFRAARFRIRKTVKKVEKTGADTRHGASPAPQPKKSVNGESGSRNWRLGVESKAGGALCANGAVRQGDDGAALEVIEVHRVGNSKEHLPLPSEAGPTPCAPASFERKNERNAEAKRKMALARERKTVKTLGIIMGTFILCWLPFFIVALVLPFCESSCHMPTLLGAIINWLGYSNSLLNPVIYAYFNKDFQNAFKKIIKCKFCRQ

[10] = biological target: 5-hydroxytryptamine receptor 1B (Homo sapiens) (UniProt P28222)
[11] = biological target: 5-hydroxytryptamine receptor 1D (Homo sapiens) (UniProt P28221)
[12] = biological target: 5-hydroxytryptamine receptor 2B (Homo sapiens) (UniProt P41595)
[13] = biological target: 5-hydroxytryptamine receptor 5A (Homo sapiens) (UniProt P47898)
[14] = biological target: 5-hydroxytryptamine receptor 7 (Homo sapiens) (UniProt P34969)
[15] = biological target: Sodium-dependent serotonin transporter (Homo sapiens) (UniProt P31645)
[16] = biological target: Beta-3 adrenergic receptor (Homo sapiens) (UniProt P13945)
Chain of Beta-3 adrenergic receptor (Homo sapiens) (P13945 whole entry, looked up): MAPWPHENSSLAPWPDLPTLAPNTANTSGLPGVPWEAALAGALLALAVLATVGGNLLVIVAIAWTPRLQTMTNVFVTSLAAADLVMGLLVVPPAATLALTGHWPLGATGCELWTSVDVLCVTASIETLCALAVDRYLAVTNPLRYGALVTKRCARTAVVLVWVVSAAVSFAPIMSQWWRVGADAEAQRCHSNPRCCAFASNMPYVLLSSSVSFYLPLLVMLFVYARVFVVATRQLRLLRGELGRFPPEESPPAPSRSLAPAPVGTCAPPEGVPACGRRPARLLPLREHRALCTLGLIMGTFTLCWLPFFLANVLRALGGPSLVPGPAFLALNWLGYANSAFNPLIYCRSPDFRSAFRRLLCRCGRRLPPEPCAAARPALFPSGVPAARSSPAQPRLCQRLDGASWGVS

Chain of 5-hydroxytryptamine receptor 2B (Homo sapiens) (P41595 whole entry): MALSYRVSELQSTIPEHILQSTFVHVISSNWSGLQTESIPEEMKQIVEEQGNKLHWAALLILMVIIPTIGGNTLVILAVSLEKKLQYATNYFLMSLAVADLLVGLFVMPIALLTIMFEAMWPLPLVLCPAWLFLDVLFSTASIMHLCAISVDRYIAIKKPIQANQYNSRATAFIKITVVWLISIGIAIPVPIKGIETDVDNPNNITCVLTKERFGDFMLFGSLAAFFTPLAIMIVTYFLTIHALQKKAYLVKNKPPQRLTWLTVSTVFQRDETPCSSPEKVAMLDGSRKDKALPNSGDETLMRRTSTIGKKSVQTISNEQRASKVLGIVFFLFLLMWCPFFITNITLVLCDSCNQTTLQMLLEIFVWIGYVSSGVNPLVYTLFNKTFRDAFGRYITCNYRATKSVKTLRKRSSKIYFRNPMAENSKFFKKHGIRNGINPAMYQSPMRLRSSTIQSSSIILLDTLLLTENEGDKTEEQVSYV
Chain of 5-hydroxytryptamine receptor 1B (Homo sapiens) (P28222 whole entry): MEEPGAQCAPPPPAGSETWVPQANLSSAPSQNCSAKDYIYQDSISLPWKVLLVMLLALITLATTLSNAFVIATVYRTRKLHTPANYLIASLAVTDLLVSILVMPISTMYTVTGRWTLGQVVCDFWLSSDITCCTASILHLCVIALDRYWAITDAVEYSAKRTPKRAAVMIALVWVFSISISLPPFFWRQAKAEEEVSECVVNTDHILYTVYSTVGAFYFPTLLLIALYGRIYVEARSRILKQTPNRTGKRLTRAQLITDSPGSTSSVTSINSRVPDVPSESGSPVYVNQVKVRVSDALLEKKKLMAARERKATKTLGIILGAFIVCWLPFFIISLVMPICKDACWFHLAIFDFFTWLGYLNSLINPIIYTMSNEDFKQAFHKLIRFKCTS
Chain of 5-hydroxytryptamine receptor 7 (Homo sapiens) (P34969 whole entry): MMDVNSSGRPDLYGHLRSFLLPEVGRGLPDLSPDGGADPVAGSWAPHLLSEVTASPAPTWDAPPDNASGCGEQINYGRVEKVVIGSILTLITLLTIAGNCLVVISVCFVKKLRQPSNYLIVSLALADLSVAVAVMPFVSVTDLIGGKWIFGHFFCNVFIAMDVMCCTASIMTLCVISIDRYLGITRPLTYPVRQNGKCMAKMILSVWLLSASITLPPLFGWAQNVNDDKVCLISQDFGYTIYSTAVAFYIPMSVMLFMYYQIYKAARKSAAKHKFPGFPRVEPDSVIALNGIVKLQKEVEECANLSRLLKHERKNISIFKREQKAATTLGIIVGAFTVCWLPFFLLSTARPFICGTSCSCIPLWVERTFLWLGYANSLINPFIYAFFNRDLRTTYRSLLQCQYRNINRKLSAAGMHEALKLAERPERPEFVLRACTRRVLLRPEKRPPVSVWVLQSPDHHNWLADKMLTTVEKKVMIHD
Chain of 5-hydroxytryptamine receptor 1D (Homo sapiens) (P28221 whole entry): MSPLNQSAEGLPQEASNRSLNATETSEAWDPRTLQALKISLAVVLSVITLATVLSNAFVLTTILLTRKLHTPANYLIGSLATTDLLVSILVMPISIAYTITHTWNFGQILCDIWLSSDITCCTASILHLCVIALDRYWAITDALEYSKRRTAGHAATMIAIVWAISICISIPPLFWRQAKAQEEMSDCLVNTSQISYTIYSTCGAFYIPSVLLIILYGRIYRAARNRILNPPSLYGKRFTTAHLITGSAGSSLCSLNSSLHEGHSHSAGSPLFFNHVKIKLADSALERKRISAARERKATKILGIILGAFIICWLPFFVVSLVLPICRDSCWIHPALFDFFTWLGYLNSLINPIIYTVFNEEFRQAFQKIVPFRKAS
Chain of Sodium-dependent serotonin transporter (Homo sapiens) (P31645 whole entry, looked up): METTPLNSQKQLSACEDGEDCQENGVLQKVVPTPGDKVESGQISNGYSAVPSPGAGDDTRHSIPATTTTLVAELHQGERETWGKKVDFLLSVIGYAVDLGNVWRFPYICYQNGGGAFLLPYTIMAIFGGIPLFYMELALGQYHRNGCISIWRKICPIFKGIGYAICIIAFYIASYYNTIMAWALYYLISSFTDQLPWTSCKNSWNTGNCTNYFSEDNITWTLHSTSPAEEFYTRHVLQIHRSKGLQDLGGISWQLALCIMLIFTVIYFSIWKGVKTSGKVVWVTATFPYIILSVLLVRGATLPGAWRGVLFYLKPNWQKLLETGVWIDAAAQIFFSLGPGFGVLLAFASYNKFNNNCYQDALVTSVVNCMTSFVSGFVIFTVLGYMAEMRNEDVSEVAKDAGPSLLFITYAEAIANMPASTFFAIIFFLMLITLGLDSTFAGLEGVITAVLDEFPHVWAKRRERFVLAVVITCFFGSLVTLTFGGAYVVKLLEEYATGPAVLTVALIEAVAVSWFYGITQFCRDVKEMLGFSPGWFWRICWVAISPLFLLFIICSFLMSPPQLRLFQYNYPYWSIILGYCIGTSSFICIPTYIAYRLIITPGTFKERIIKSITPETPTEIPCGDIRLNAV
Chain of Histamine H4 receptor (Homo sapiens) (Q9H3N8 whole entry): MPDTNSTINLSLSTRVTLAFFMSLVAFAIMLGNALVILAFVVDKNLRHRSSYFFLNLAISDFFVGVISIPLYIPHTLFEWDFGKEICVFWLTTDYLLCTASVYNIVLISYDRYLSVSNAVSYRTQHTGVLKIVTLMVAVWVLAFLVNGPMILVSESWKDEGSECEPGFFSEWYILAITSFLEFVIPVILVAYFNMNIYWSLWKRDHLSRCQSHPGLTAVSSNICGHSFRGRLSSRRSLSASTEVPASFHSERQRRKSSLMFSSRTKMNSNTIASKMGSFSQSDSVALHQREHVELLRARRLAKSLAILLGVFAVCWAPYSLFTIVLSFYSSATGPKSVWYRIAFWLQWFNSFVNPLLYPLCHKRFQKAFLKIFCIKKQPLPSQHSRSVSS
Chain of D(1B) dopamine receptor (Homo sapiens) (P21918 whole entry): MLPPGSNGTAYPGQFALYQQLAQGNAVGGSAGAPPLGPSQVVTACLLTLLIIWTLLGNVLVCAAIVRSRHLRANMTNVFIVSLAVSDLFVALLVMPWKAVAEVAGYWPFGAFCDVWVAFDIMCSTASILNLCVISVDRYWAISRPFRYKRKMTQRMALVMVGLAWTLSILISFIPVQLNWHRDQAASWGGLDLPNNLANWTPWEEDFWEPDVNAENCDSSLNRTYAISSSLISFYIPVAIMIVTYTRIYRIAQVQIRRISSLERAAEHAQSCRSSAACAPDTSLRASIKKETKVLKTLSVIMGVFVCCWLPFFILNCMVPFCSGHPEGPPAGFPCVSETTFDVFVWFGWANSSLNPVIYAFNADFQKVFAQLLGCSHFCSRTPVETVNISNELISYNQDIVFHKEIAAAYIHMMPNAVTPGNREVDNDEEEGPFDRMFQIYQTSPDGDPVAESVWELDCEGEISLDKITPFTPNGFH
Chain of 5-hydroxytryptamine receptor 5A (Homo sapiens) (P47898 whole entry): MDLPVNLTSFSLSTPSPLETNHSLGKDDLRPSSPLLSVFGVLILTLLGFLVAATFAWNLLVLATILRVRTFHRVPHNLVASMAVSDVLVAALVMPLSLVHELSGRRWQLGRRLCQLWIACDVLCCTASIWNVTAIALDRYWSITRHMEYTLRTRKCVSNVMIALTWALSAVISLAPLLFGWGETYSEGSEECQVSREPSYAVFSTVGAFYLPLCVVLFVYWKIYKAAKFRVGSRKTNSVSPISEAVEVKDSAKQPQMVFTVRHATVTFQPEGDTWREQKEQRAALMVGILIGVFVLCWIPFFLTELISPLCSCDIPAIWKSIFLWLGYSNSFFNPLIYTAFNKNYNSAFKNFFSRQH
Chain of Histamine H1 receptor (Homo sapiens) (P35367 whole entry): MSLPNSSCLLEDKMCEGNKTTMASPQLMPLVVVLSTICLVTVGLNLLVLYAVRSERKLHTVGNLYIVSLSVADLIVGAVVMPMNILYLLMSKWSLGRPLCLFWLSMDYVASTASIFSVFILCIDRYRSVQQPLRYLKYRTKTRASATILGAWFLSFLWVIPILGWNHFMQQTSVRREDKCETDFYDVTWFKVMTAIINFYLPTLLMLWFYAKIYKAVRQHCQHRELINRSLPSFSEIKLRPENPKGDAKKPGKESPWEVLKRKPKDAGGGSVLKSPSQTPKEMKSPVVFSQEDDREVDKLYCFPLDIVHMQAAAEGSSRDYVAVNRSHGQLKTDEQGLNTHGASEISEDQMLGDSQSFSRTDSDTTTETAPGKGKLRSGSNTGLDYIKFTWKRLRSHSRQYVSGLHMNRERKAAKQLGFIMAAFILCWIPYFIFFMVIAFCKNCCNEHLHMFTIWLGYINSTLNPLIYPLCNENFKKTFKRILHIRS
Chain of Beta-1 adrenergic receptor (Homo sapiens) (P08588 whole entry, looked up): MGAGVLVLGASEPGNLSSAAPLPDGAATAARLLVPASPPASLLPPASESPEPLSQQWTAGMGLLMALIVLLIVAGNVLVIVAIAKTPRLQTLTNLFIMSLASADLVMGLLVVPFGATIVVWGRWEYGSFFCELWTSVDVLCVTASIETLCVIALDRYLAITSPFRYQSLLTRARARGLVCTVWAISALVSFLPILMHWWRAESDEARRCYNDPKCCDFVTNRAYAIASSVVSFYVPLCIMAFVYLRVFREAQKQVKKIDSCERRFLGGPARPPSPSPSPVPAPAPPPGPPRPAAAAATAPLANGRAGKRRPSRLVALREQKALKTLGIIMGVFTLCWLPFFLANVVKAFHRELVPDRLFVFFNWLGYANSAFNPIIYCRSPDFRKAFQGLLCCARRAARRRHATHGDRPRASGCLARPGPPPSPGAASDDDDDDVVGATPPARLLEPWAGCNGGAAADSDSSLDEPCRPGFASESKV

SMILES	inhibition [1]	inhibition [2]	inhibition [3]	inhibition [4]	inhibition [5]	inhibition [6]	inhibition [7]	inhibition [8]	inhibition [9]	inhibition [10]	inhibition [11]	inhibition [12]	inhibition [13]	inhibition [14]	inhibition [15]	inhibition [16]
COc1ccc(NS(=O)(=O)c2sc3ccc(Cl)cc3c2C)cc1N1CCNCC1	75.7%	35.2%	50.6%	5.58%	0.64%	22.4%	15.6%	18.2%	67.4%	48.8%	66.8%	71.2%	58.1%	38.3%	37.7%	56.5%
CCCCN(CC)c1nc(C)nc2c1c(C)cn2-c1c(C)cc(C)cc1C	4.06%	-1.9%	37.8%			-2.04%	12.4%	2.86%	-6.24%	-9.74%	-0.49%	16.9%			2.76%	41.7%
CN1C2CCC1CC(OC(c1ccc(F)cc1)c1ccc(F)cc1)C2 (stereo not drawn)			33%	95.6%	21%	66.6%		67.8%	21.6%	27.7%	74%	102%	83.1%	92.4%	15.4%	36%
COc1ccc(S(=O)(=O)N2c3ccc(Cl)cc3[C@](O)(c3ccccc3Cl)[C@@H]2C(=O)N2CCC[C@H]2C(N)=O)cc1OC	12.7%	-3.82%	28.5%		-3.97%		5.97%	21.7%	8.75%		6.02%	0.08%	-7.91%		46.5%	31.7%
Clc1cccc(COc2cncc(N3CCNCC3)n2)c1	33.7%	36.9%	50.8%	85.7%	42.2%	11.8%	55.6%	49.1%	86%	89%	89.1%	99.5%	13.2%	87.1%	2.44%	28.7%
CCCCCNC(=O)NS(=O)(=O)c1cc([N+](=O)[O-])ccc1NC1CCCCC1		-0.86%	18.5%	4.78%		4.44%	12.8%	16.9%	1.18%	0.02%	12.4%	-9.68%			85.4%	39.7%
CC(C)(N)C(=O)N[C@H](COCc1ccccc1)C(=O)N1CCC2(CC1)CN(S(C)(=O)=O)c1ccccc12	10.4%	3.03%	30.4%			-1.48%	24.6%	4.09%	-5.57%		30.2%	3.09%			23.6%	15.2%
CC[C@@H]1CN2C(=O)N(C)c3nc(-c4ccccc4)[nH]c3C2=N1	-7.63%	-1.57%	21.2%		10.4%	9.96%	27.4%	-3.92%	12%	6.19%		-1.79%	14.4%	21.6%	-6.29%	19.4%
COc1ccc(/C=C/CCCCOc2ccc(C(=O)c3cccc(C(=O)O)c3)cc2CCC(=O)O)cc1		1.56%	49.6%				18.1%	4.74%	30.3%	29.9%	31.8%	-2.42%	-8.69%	-2.54%	11.1%	30.7%
CSc1ccc(C(=O)N[C@@H]2CCCC[C@@H]2NC(=O)CNC(=O)c2cc(C(F)(F)F)ccc2NC(=O)NC(C)C)cc1	-2.26%		-9.46%	6.91%	3.27%		70.6%		22.6%			27.9%	5.1%	2.72%	13.7%	1.5%
CCCCN(CCCC)C(=O)CN1C[C@@H](c2ccc3c(c2)OCO3)[C@H](C(=O)O)[C@H]1c1ccc(OC)cc1	0.09%	-5.48%	-6.31%	7.9%	60.5%		3.82%	4.49%	-4.59%	-0.63%	-9.55%	-9.25%		-7.92%	-9.18%	-9.03%
COc1ccc(OC(F)(F)F)cc1CN[C@H]1CCCN[C@H]1c1ccccc1	38.4%	9.77%	1.65%	-2.31%	-2.15%	-8.91%	92.9%	1.14%	56.2%	10%	-4.51%	87.7%	24.8%		38.8%	6.31%
